# Active and inactive are the calls of the source. The rule behind the calls is not given here.
# What was measured:
# Agelas clathrodes = assay: Distribution in Carribean Agelas clathrodes was determined and expressed as % dry weight; format: functional
# Agelas conifera = assay: Distribution in Carribean Agelas conifera was determined and expressed as % dry weight; format: functional
# Agelas dispar = assay: Distribution in Carribean Agelas dispar was determined and expressed as % dry weight; format: functional
# agelas longissima = assay: Distribution in Carribean Agelas longissima was determined and expressed as % dry weight; format: functional
# Cavia porcellus [1] = species: Cavia porcellus; assay: Apparent affinity towards histamine receptor was determined and expressed as pD2
# Cavia porcellus [2] = species: Cavia porcellus; assay: Apparent affinity towards histamine receptor was determined and expressed as pD2; IA = Inactive
SMILES,pD2 (Cavia porcellus [1]),pD2 (Cavia porcellus [2]),Dry weight (Agelas clathrodes) [%],Dry weight (Agelas conifera) [%],Dry weight (Agelas dispar) [%],Dry weight (agelas longissima) [%]
NC1=N/C(=C\CCNC(=O)c2cc(Br)c(Br)[nH]2)C(=O)N1,5.52,,3.2,0.8,3.5,1.1
NC1=N/C(=C\C(O)CNC(=O)c2cc(Br)c(Br)[nH]2)C(=O)N1 (stereo not given),4.48,,3.2,0.8,3.5,1.1
Nc1nc([C@H]2[C@H](CNC(=O)c3cc(Br)c[nH]3)[C@@H](CNC(=O)c3cc(Br)c[nH]3)[C@@H]2c2c[nH]c(N)n2)c[nH]1,4.24,,15.1,8.8,15.5,2.5
NC1=N/C(=C\CCNC(=O)c2cc(Br)c[nH]2)C(=O)N1,5.33,,0.5,3.5,0.2,3.3
Nc1ncc(/C=C/CNC(=O)c2cc(Br)c(Br)[nH]2)[nH]1,4.02,,2.1,2.1,4.2,4.1

# More lines, main results first:
pD2 (Cavia porcellus [1]),pD2 (Cavia porcellus [2]),SMILES,Dry weight (Agelas clathrodes) [%],Dry weight (Agelas conifera) [%],Dry weight (Agelas dispar) [%],Dry weight (agelas longissima) [%]
,inactive,C[N+]1=CNC[C@]1(C)CC(NC(=O)c1cc(Br)c[nH]1)C(=O)[O-] (stereo not given in full),7.2,0,0,0
4.34,,NC1=N/C(=C\C(O)CNC(=O)c2cc(Br)c[nH]2)C(=O)N1 (stereo not given),0.5,3.5,0.2,3.3

# Reference: ChEMBL document CHEMBL1150555, “Anti-histaminic activity of bromopyrrole alkaloids isolated from Caribbean Agelas sponges” (Bioorg Med Chem Lett, 1997)
